This passage reports ring closure, isolated yield and EC50 results from patent US12324802B2, “Modulators of cystic fibrosis transmembrane conductance regulator” (Vertex Pharmaceuticals Incorporated, priority 2020, dated 2025).

Each structure is given as a SMILES string. Read-outs that look alike come from different tables or passages of the source.

Series [1] has as its target T1, CFTR (F508del/MF-HBE cells) (Homo sapiens, UniProt P13569, DEL508-508).
T1 construct: human bronchial epithelial (HBE) cells derived from CF subjects heterozygous for F508del and a minimal function CFTR mutation; endogenous in cells; host or cells: primary human bronchial epithelial cells from CF subjects (F508del/MF genotype)
The series can be described thus: Ussing chamber assay of CFTR-mediated short-circuit currents (identification of potentiator compounds). Type of series: cell-based. Particulars: CFTR-mediated ISC in F508del/MF-HBE cells; incubated 18-24 hours at 37° C. with 10 μM (14S)-8-[3-(2-{dispiro[2.0.2.1]heptan-7-yl}ethoxy)-1H-pyrazol-1-yl]-...-2,2,4-trione, 20% human serum. In outline:
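Short-circuit current was voltage-clamped at 0 mV and 37 °C in pH 7.4 HEPES buffers, with amiloride (30 μM) on the apical side. The CFTR component was defined as forskolin (20 μM) peak minus residual current after BPO/GlyH-101/CFTRinh-172 at 20 μM each. Cells had been pretreated 18–24 h with potentiator concentrations and 10 μM corrector in 20% human serum, kept throughout the measurement.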

T1 sequence (P13569 with tags, fused parts or gaps DEL508-508): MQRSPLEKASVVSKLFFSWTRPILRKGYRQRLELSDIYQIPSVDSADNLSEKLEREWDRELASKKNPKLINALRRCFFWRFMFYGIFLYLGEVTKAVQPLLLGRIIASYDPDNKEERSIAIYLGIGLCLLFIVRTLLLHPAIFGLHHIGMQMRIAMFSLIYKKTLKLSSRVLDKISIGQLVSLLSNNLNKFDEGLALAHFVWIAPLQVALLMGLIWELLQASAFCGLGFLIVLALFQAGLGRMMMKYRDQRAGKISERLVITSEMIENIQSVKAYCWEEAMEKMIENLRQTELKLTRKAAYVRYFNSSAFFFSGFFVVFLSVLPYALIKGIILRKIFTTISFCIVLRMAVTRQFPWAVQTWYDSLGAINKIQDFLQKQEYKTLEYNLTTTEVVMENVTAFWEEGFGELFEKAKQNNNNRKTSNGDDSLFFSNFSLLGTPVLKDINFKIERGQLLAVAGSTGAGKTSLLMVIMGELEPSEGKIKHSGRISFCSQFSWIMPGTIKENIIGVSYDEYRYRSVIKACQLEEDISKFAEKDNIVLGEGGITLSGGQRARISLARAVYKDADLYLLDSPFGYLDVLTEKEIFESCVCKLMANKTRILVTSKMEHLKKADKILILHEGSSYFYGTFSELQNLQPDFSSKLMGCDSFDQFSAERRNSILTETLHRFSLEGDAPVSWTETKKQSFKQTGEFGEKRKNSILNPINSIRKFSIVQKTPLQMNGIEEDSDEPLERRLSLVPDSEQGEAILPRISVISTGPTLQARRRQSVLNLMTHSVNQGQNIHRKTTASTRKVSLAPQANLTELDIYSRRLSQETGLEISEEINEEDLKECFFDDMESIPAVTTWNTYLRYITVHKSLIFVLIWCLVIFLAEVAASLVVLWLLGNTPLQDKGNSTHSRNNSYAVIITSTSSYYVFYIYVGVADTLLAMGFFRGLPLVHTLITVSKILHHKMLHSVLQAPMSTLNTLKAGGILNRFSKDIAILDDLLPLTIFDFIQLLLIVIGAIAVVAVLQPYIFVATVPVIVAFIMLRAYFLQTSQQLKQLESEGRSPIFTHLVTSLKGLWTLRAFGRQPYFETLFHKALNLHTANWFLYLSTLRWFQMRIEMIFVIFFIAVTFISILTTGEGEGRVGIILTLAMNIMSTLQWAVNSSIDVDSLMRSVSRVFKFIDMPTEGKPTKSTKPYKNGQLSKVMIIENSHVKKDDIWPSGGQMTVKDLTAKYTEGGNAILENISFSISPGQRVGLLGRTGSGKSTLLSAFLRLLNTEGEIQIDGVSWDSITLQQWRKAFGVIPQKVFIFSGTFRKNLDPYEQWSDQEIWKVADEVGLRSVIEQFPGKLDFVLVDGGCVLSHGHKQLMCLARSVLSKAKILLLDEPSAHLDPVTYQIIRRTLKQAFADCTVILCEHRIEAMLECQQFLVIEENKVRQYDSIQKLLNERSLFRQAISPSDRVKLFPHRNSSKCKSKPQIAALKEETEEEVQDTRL

For `CC(C)(C)OC(=O)Nc1cc(C(F)(F)F)c2nc1-c1nnc(o1)C(OCc1ccccc1)(C(F)(F)F)CCCC(=O)N1CCN2CC1` (stereo not drawn), the ring closure, isolated yield (from CC(C)(C)OC(=O)Nc1cc(C(F)(F)F)c(N2CCNCC2)nc1-c1nnc(C(CCCC(=O)O)(OCc2ccccc2)C(F)(F)F)o1, amide bond, 15-membered ring, HATU/DIEA, DMF, 14.5 mM, 25.0 °C, 0.083 h) was 80%.
Under “from CC(C)(C)OC(=O)Nc1cc(C(F)(F)F)c(Br)nc1-c1nnc(C(CCCCC2CCNC2)(OCc2ccccc2)C(F)(F)F)o1, snar bond, 14-membered ring, DIEA, MeCN, 6.33 mM, 80.0 °C, 16.0 h”, `CC(C)(C)OC(=O)Nc1cc(C(F)(F)F)c2nc1-c1nnc(o1)C(OCc1ccccc1)(C(F)(F)F)CCCCC1CCN2C1` (stereo not drawn) had a ring closure, isolated yield of 79%.
Turning to `CC1(C)CCCC(OCc2ccccc2)(C(F)(F)F)C(=O)NNC(=O)c2nc(c(C(F)(F)F)cc2[N+](=O)[O-])NCC1` (stereo not drawn), where the note is “from CC(C)(CCCC(OCc1ccccc1)(C(=O)O)C(F)(F)F)CCNc1nc(C(=O)O)c([N+](=O)[O-])cc1C(F)(F)F, crosslinker bond, 15-membered ring, hydrazine/BOP/HOAt/DIEA, DMF, 2.1 mM, 30.0 °C”, the ring closure, isolated yield came to 84%.
Consider `CC1(C)CCCOCC(OCc2ccccc2)(C(F)(F)F)C2=NN=C(O2)c2nc(c(C(F)(F)F)cc2[N+](=O)[O-])N1` (stereo not drawn), for which the ring closure, isolated yield (from Cc1ccc(S(=O)(=O)Oc2nc(-c3nnc(C(COCCCC(C)(C)N)(OCc4ccccc4)C(F)(F)F)o3)c([N+](=O)[O-])cc2C(F)(F)F)cc1, snar bond, 14-membered ring, DIEA, DCM, 1.47 mM) is 45%.
Regarding `CC1(C)COCCCC(OCc2ccccc2)(C(F)(F)F)C(=O)NNC(=O)c2nc(c(C(F)(F)F)cc2[N+](=O)[O-])N1` (stereo not drawn), the ring closure, isolated yield (from CC(C)(COCCCC(OCc1ccccc1)(C(=O)O)C(F)(F)F)Nc1nc(C(=O)NN)c([N+](=O)[O-])cc1C(F)(F)F, amide bond, 15-membered ring, BOP/HOBt/DIEA, DMF, 2.78 mM, 25.0 °C, 24.0 h) worked out at 28%.
The compound `O=[N+]([O-])c1cc(C(F)(F)F)c2nc1-c1nnc(o1)C(OCc1ccccc1)(C(F)(F)F)CCC=CCC(CO)N2` (stereo not drawn) registered a ring closure, isolated yield (from C=CCCC(OCc1ccccc1)(c1nnc(-c2nc(NC(CO)CC=C)c(C(F)(F)F)cc2[N+](=O)[O-])o1)C(F)(F)F, rcm bond, 14-membered ring, Zhan-1B, DCE, 3.01 mM, 70.0 °C, 2.0 h) of 32%.
As to `O=[N+]([O-])c1cc(C(F)(F)F)c2nc1-c1nnc(o1)[C@@](OCc1ccccc1)(C(F)(F)F)CC=CCCC(C1CC1)N2` (stereo partly drawn), under “from C=CCCC(Nc1nc(-c2nnc([C@@](CC=C)(OCc3ccccc3)C(F)(F)F)o2)c([N+](=O)[O-])cc1C(F)(F)F)C1CC1, rcm bond, 14-membered ring, Zhan catalyst-1B, DCE, 2.49 mM, 66.0 °C, 1.6 h”, the ring closure, isolated yield stood at 76%.
As to `CC1(C)CC2CC=Cc3ccc(F)c(c3)C(O)(C(F)(F)F)C3=NN=C(O3)c3nc(c(C(F)(F)F)cc3N(C(=O)OC(C)(C)C)C(=O)OC(C)(C)C)N2C1` (mixture of isomers), where the note is “from C=CCC1CC(C)(C)CN1c1nc(-c2nnc(C(O)(c3cc(I)ccc3F)C(F)(F)F)o2)c(N(C(=O)OC(C)(C)C)C(=O)OC(C)(C)C)cc1C(F)(F)F, cc_pd bond, 15-membered ring, Pd(OAc)2/P(o-tol)3/Et3N, MeCN, 7.06 mM, 80.0 °C, 22.0 h”, the ring closure, isolated yield was determined as 58%.
As to `CC1(C)CC=CCC(OCc2ccccc2)(C(F)(F)F)C2=NN=C(O2)c2nc(c(C(F)(F)F)cc2[N+](=O)[O-])NC1` (mixture of isomers), the ring closure, isolated yield (from C=CCC(C)(C)CNc1nc(-c2nnc(C(CC=C)(OCc3ccccc3)C(F)(F)F)o2)c([N+](=O)[O-])cc1C(F)(F)F, rcm bond, 14-membered ring, Zhan catalyst-1B, DCE, 2.0 mM, 80.0 °C, 16.0 h) amounted to 14%.
The compound `CC1(C)Nc2nc(c([N+](=O)[O-])cc2C(F)(F)F)C2=NN=C(O2)[C@@](OCc2ccccc2)(C(F)(F)F)CC=CCC1OCc1ccccc1` (mixture of isomers) had a ring closure, isolated yield (from C=CCC(OCc1ccccc1)C(C)(C)Nc1nc(-c2nnc([C@@](CC=C)(OCc3ccccc3)C(F)(F)F)o2)c([N+](=O)[O-])cc1C(F)(F)F, rcm bond, 14-membered ring, Zhan catalyst-1B, DCE, 2.36 mM, 70.0 °C, 18.0 h) of 76%.
Consider `CC1(C)CNc2nc(c(N)cc2C(F)(F)F)C2=NN=C(O2)[C@@](O)(C(F)(F)F)CCCO1` [Compound 186, (6R)-17-amino-11,11-dimethyl-6,15-bis(trifluoromethyl)-10,19-dioxa-3,4,13,18-tetrazatricyclo[12.3.1.12,5]nonadeca-1(17),2,4,14(18),15-pentaen-6-ol], for which the half-maximal effective concentration (EC50) in series [1] was < 500 nM.
The same measure, in the same setting: for `CC1(C)CCC[C@@H](O)C[C@](O)(C(F)(F)F)C2=NN=C(O2)c2nc(c(C(F)(F)F)cc2N)N1` [Compound 187, (6R,8R)-17-amino-12,12-dimethyl-6,15-bis(trifluoromethyl)-19-oxa-3,4,13,18-tetrazatricyclo[12.3.1.12,5]nonadeca-1(18),2,4,14,16-pentaene-6,8-diol] the value was < 500 nM; for `CC1(C)CCC[C@H](O)C[C@](O)(C(F)(F)F)C2=NN=C(O2)c2nc(c(C(F)(F)F)cc2N)N1` [Compound 188, (6R,8S)-17-amino-12,12-dimethyl-6,15-bis(trifluoromethyl)-19-oxa-3,4,13,18-tetrazatricyclo[12.3.1.12,5]nonadeca-1(18),2,4,14,16-pentaene-6,8-diol], < 500 nM.
The same measure, in the same setting: the value for `Nc1cc(C(F)(F)F)c2nc1-c1nnc(o1)[C@@](O)(C(F)(F)F)CCCCCC1(CCCCC1)N2` [Compound 193, (6R)-17-amino-6,15-bis(trifluoromethyl)spiro[19-oxa-3,4,13,18-tetrazatricyclo[12.3.1.12,5]nonadeca-1(18),2,4,14,16-pentaene-12,1′-cyclohexane]-6-ol] was < 500 nM; that for `Nc1cc(C(F)(F)F)c2nc1-c1nnc(o1)[C@@](O)(C(F)(F)F)CCCCCC1(CCOCC1)N2` [Compound 205, (6R)-17-amino-6,15-bis(trifluoromethyl)spiro[19-oxa-3,4,13,18-tetrazatricyclo[12.3.1.12,5]nonadeca-1(18),2,4,14,16-pentaene-12,4′-tetrahydropyran]-6-ol] was < 500 nM.
